In ChEMBL document CHEMBL1201862, “PubChem BioAssay data set” (2004) one finds IC50 data, which are given here for two compounds.

The structures appear in SMILES notation. Activity calls are given as the source filed them. Cut-off read from the data, not from the text of the source: actives have a measured IC50 and inactives only a lower limit.

In this assay the target is Envelope glycoprotein gp160 (Human immunodeficiency virus 1, UniProt Q6QLK5). The assay is described as follows: inhibitors of HIV fusion peptide binding, primary screen, biochemical, uHTS, fluorescence dequenching (AID 1986).
Chain of Envelope glycoprotein gp160 (Q6QLK5 whole entry, the tested form may be a part): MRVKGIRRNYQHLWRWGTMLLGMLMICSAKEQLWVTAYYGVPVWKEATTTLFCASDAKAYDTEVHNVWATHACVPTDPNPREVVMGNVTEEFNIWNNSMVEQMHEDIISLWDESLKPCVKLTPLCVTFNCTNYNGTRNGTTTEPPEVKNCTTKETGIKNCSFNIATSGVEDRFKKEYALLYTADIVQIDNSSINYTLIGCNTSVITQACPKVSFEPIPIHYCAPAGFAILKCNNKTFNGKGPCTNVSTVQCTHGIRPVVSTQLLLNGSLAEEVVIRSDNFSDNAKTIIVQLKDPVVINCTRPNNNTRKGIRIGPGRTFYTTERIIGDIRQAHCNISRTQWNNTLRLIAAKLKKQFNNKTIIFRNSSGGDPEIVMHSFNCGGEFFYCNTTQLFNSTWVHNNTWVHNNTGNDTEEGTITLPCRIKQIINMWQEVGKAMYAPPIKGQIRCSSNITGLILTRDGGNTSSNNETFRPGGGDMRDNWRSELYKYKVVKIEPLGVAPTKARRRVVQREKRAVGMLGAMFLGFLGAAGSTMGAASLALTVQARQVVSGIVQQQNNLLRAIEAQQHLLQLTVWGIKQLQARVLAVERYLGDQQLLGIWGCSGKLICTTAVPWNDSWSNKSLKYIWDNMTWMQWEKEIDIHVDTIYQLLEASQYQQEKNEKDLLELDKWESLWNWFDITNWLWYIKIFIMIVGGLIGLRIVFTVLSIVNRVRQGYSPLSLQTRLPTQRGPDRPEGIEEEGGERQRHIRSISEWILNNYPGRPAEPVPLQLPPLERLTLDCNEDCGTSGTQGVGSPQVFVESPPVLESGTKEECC

Usually IC50 stands for the concentration needed to halve the response being measured. In the case of `COc1ccc(C(=O)Nc2ccccc2C(=O)O)cc1NC(=O)C(c1ccccc1)c1ccccc1`, the 50% inhibitory concentration (IC50) is 14.1 µM (active).
The figure for `CCOC(=O)c1c(N2C(=O)Nc3cc(Cl)c(Cl)cc3N2O)sc2c1CCCCC2` is 22.3 µM (active).
